Data from US11136301B2, “Broad spectrum antiviral compounds and uses thereof” (The Regents Of The University Of California, priority 2015, dated 2021).
Entries after “also recorded” stand apart in the source; their conditions may differ. Counter-ions that a name gives are not always drawn. Like-named read-outs stand apart in the source and are kept apart here.

How the values were obtained:
[1] = test system: HA-tagged A3G and GFP-tagged Vif or ΔVif in 293FT cells; assay: Immunoblot of A3G and Vif levels in transfected 293FT cells; settings: 293FT cells, 50 μM, 16 h; for A3G levels / Vif expression: HA-A3G and GFP-Vif
[2] = test system: wild-type HIV-1 (HIV-1LAI) in H9 cells (non-permissive); assay: microbe, parasite or virus in culture; type: cell-based; settings: for viral replication (reverse transcriptase activity in supernatants): HIV-1LAI, up to 50 μM, 15 days
[3] = test system: wild-type HIV-1 (HIV-1LAI) in MT-4 cells (permissive); assay: Antiviral activity assay: wild-type HIV-1 in permissive MT4 cells, reverse transcriptase activity in culture supernatants; type: cell-based; settings: for viral replication (reverse transcriptase activity in supernatants): MT4 cells, HIV-1LAI, 15 days
HSP90 = assay: ViTAP (Vif inhibitor Target Affinity Purification): streptavidin affinity purification of compound-bound proteins; type: binding; settings: transfected 293FT cells, streptavidin affinity purification
[4] = test system: polyubiquitination of A3G and Vif; assay: Ubiquitination assay in 293FT cells; type: cell-based; settings: 293FT cells expressing HA-A3G and GFP-Vif, 10 μM, ALLN
Procedure: Cells were incubated with or without 10 μM of IMA82, IMD55, or IMD64 for 16 h, and then with or without 10 μM of the calpain inhibitor ALLN for 4 h. The cells were washed once with PBS and lysed. Samples of 200 μg protein were immunoprecipitated by the addition of rat anti-HA (Roche) or mouse anti-GFP (Wako) antibodies (7 μg) and 50 μl protein G DYNABEADS® (Invitrogen) and rotated at RT for 2 h. The beads were washed three times with PBS containing 0.05% Tween 20 and boiled in 5×SDS sample buffer. The denatured proteins were resolved and electroblotted onto PVDF membranes. The membranes were probed with rabbit anti-ubiquitin, rabbit anti-HA, or rabbit anti-GFP antibodies, as described above.

[5] = Human immunodeficiency virus 1, H9, read-out: Antiviral activity (IC50 μM) H9 cells, Table 1, wild-type HIV-1, non-permissive H9 cells
[6] = Human immunodeficiency virus 1, H9, read-out: Antiviral activity (IC50 μM) H9 cells, Table 3, wild-type HIV-1, non-permissive H9 cells
[7] = Human immunodeficiency virus 1, H9, read-out: Antiviral activity (IC50 μM) H9 cells, Table 6, wild-type HIV-1, non-permissive H9 cells
[8] = Human immunodeficiency virus 1, H9, read-out: IC50, anti-HIV-1 activity, non-permissive H9 cells
[9] = Human immunodeficiency virus 1, MT4, Table 1, wild-type HIV-1, permissive MT4 cells, read-out: Antiviral activity (IC50 μM) MT4 cells
[10] = Human immunodeficiency virus 1, MT4, Table 3, wild-type HIV-1, permissive MT4 cells, read-out: Antiviral activity (IC50 μM) MT4 cells
[11] = Human immunodeficiency virus 1, MT4, Table 6, wild-type HIV-1, permissive MT4 cells, read-out: Antiviral activity (IC50 μM) MT4 cells
[12] = Human immunodeficiency virus 1, MT4, text, permissive MT4 cells, read-out: IC50, non-specific antiviral activity in permissive cells
[13] = Human immunodeficiency virus 1, H9, read-out: Antiviral activity (IC50 μM) H9 cells, wild-type HIV-1 (HIV-1LAI), H9 cells (non-permissive), RT activity in culture supernatants, compounds 1 to 50 μM
[14] = Human immunodeficiency virus 1, MT4, wild-type HIV-1 (HIV-1LAI), MT4 cells (permissive), RT activity in culture supernatants, compounds 1 to 50 μM, read-out: Antiviral activity (IC50 μM) MT4 cells
[15] = Human immunodeficiency virus 1, H9, read-out: Antiviral activity (IC50 μM) H9, Table 2, wild-type HIV-1, non-permissive H9 cells
[16] = Human immunodeficiency virus 1, H9, read-out: Antiviral activity (IC50 μM) H9 Cells, Table 4, wild-type HIV-1, non-permissive H9 cells
[17] = Human immunodeficiency virus 1, H9, read-out: Antiviral activity (IC50 μM) H9 Cells, Table 7, wild-type HIV-1, non-permissive H9 cells
[18] = Human immunodeficiency virus 1, H9, read-out: Antiviral activity (IC50 μM) H9 cells, Table 5, wild-type HIV-1, non-permissive H9 cells
[19] = Human immunodeficiency virus 1, H9, read-out: Antiviral activity (IC50 μM) H9 cells, Table 8, wild-type HIV-1, non-permissive H9 cells
[20] = Human immunodeficiency virus 1, MT4, Table 2, wild-type HIV-1, permissive MT4 cells, read-out: Antiviral activity (IC50 μM) MT4

| Compound | melting point [°C] | A3G levels [1] | Vif expression [1] | IC50 [2, 5] [µM] | IC50 [2, 6] [µM] | IC50 [2, 8] [µM] | IC50 [3, 9] [µM] | IC50 [3, 10] [µM] | IC50 [2, 13] [µM] | IC50 [3, 14] [µM] | upregulation of A3G and downregulation of Vif (immunoblots, FIG. 16) [1] | IC50 [2, 15] [µM] | IC50 [2, 16] [µM] | IC50 [2, 17] [µM] | IC50 [2, 18] [µM] | IC50 [2, 19] [µM] | IC50 [3, 20] [µM] | co-purification of HSP90 (90 kDa protein) with the compound (HSP90) | viral replication (reverse transcriptase activity in supernatants) ([2]; H9 cells) | further results |
| --- | --- | --- | --- | --- | --- | --- | --- | --- | --- | --- | --- | --- | --- | --- | --- | --- | --- | --- | --- | --- |
| COc1ccccc1-n1cc(-c2ccccc2S(=O)(=O)c2ccc(C(=O)O)cc2)nn1 (as salt: salt) [Compound 2gy, 2-Hydroxy-N,N,N-trimethylethanaminium 4-((2-(1-(2-methoxyphenyl)-1H-1,2,3-triazol-4-yl)phenyl)sulfonyl)benzoate] | 93 |  |  |  |  |  |  |  |  |  |  |  |  |  |  |  |  |  |  |  |
| COc1ccccc1-c1nnc(-c2ccccc2Sc2ccc([N+](=O)[O-])cc2)o1 [Compound 1b, 2-(2-Methoxyphenyl)-5-(2-((4-nitrophenyl)thio)phenyl)-1,3,4-oxadiazole] | 128 to 130 | up-regulation of A3G; also recorded: restoring A3G levels | downregulation of Vif; also recorded: down-regulated Vif expression | 6.8 | 6.8 | 6.8 | 50 | 50 |  |  |  |  |  |  |  |  |  |  |  | IC50 [2, 7]: 6.8 µM; IC50 [3, 11]: 50 µM; IC50 [3, 12]: 50 µM |
| COc1ccccc1-c1noc(-c2ccccc2Sc2ccc([N+](=O)[O-])cc2)n1 [Compound 1c, 3-(2-Methoxyphenyl)-5-(2-((4-nitrophenyl)thio)phenyl)-1,2,4-oxadiazole] | 138 | up-regulation of A3G; also recorded: restoring A3G levels | downregulation of Vif; also recorded: down-regulated Vif expression | 6.8 | 6.8 | 6.8 | > 50 | > 50 |  |  |  |  |  |  |  |  |  |  |  |  |
| COc1ccccc1-n1cc(-c2ccccc2Sc2ccc([N+](=O)[O-])cc2)nn1 [Compound 1d, 1-(2-Methoxyphenyl)-4-(2-((4-nitrophenyl)thio)phenyl)-1H-1,2,3-triazole] | 149 to 151 | up-regulation of A3G; also recorded: restoring A3G levels | downregulation of Vif; also recorded: down-regulated Vif expression | 1.2 | 1.2 | 1.2 | > 50 | > 50 | 1.2 | > 50 |  |  |  |  |  |  |  |  |  | IC50 [2, 7]: 1.2 µM; IC50 [3, 11]: > 50 µM; antiviral activity in MT4 cells (specificity) ([3]; permissive MT4 cells, up to 50 μM): no activity |
| COc1ccccc1-n1nncc1-c1ccccc1Sc1ccc([N+](=O)[O-])cc1 [Compound 1e, 1-(2-Methoxyphenyl)-5-(2-((4-nitrophenyl)thio)phenyl)-1H-1,2,3-triazole] | 139 to 141 | up-regulation of A3G; also recorded: restoring A3G levels | downregulation of Vif; also recorded: down-regulated Vif expression | 15 | 15 | 15 | 25 | 25 |  |  |  |  |  |  |  |  |  |  |  | IC50 [3, 12]: 25 µM |
| COc1ccccc1-n1cc(-c2ccccc2Sc2ccc(C(F)(F)F)cc2)nn1 [Compound 2dx, 1-(2-Methoxyphenyl)-4-(2-((4-(trifluoromethyl)phenyl)thio)phenyl)-1H-1,2,3-triazole] |  |  |  |  |  | 1 to 3 |  |  | 2.6 | > 50 | same mechanism as of RN-18; also recorded: same mechanism as observed for RN-18 and 1d | 2.6 | 2.6 | 2.6 | 2.6 | 2.6 | > 50 |  |  |  |
| COc1ccccc1-n1cc(-c2ccccc2S(=O)(=O)c2ccc(N)cc2)nn1 [Compound 2ey, 4-((2-(1-(2-Methoxyphenyl)-1H-1,2,3-triazol-4-yl)phenyl)sulfonyl)aniline] |  |  |  |  |  | 0.4 |  |  | 0.4 | > 50 | same mechanism as of RN-18; also recorded: same mechanism as observed for RN-18 and 1d | 0.4 | 0.4 | 0.4 | 0.4 | 0.4 | > 50 |  |  |  |
| COc1ccc(OC)c(-n2cc(-c3ccccc3Sc3ccc([N+](=O)[O-])cc3)nn2)c1 [Compound 5ax, 1-(2,5-Dimethoxyphenyl)-4-(2-((4-nitrophenyl)thio)phenyl)-1H-1,2,3-triazole] |  |  |  |  |  | 0.01 |  |  | 0.01 | > 50 | same mechanism as of RN-18; also recorded: same mechanism as observed for RN-18 and 1d | 0.01 | 0.01 | 0.01 | 0.01 | 0.01 | > 50 |  |  | fold more potent than the original lead molecule RN-18 ([2]; H9 cells, IC50 compared with RN-18): about 1000 fold |
| COc1ccc(OC)c(-n2cc(-c3ccccc3S(=O)(=O)c3ccc(N)cc3)nn2)c1 [Compound 5ey, 4-((2-(1-(2,5-Dimethoxyphenyl)-1H-1,2,3-triazol-4-yl)phenyl)sulfonyl)aniline] |  |  |  |  |  |  |  |  | 0.6 | > 50 | same mechanism as of RN-18; also recorded: same mechanism as observed for RN-18 and 1d | 0.6 | 0.6 | 0.6 | 0.6 | 0.6 | > 50 |  |  |  |
| COc1cc(C(=O)NCCOCCOCCOCCNC(=O)CCCCC2SCC3NC(=O)NC32)ccc1NC(=O)c1ccccc1Sc1ccc([N+](=O)[O-])cc1 (centres unmarked) [IMD40, 3-methoxy-4-(2-((4-nitrophenyl)thio)benzamido)-N-(13-oxo-17-(2-oxohexahydro-1H-thieno[3,4-d]imidazol-4-yl)-3,6,9-trioxa-12-azaheptadecyl)benzamide] |  |  |  |  |  |  |  |  |  |  |  |  |  |  |  |  |  | binds HSP90; also recorded: purified a specific 90 kDa protein | dose-dependently inhibited viral replication |  |
| COc1ccccc1C(=O)NCCOCCOCCOCCNC(=O)CCCCC1SCC2NC(=O)NC21 (centres unmarked) [IMD41, 2-methoxy-N-(13-oxo-17-(2-oxohexahydro-1H-thieno[3,4-d]imidazol-4-yl)-3,6,9-trioxa-12-azaheptadecyl)benzamide] |  |  |  |  |  |  |  |  |  |  |  |  |  |  |  |  |  | did not co-purify | no effect on viral replication | viral replication (reverse transcriptase activity in supernatants) ([3]; up to 50 μM): no effect on viral replication |
| COc1cc(C(=O)NCCOCCOCCOCCNC(=O)CCCCC2SCC3NC(=O)NC32)ccc1NC(=O)c1ccc(N=[N+]=[N-])cc1Sc1ccc([N+](=O)[O-])cc1 (centres unmarked) [IMD55, 4-azido-N-(2-methoxy-4-((13-oxo-17-(2-oxohexahydro-1H-thieno[3,4-d]imidazol-4-yl)-3,6,9-trioxa-12-azaheptadecyl)carbamoyl)phenyl)-2-((4-nitrophenyl)thio)benzamide] |  |  |  |  |  |  |  |  |  |  |  |  |  |  |  |  |  | co-purified; also recorded: specifically co-purify | dose-dependently inhibited viral replication | A3G ubiquitination [4]: not observed; Vif ubiquitination [4]: ubiquitinated |
| [N-]=[N+]=Nc1ccc(C(=O)NCCOCCOCCOCCNC(=O)CCCCC2SCC3NC(=O)NC32)cc1 (centres unmarked) [IMD64, 4-Azido-N-(13-oxo-17-(2-oxohexahydro-1H-thieno[3,4-d]imidazol-4-yl)-3,6,9-trioxa-12-azaheptadecyl)benzamide] |  |  |  |  |  |  |  |  |  |  |  |  |  |  |  |  |  | did not associate | no effect on viral replication | A3G ubiquitination [4]: extensively ubiquitinated; viral replication (reverse transcriptase activity in supernatants) ([3]; up to 50 μM): no effect on viral replication |
